This note sets out measurements from PubChem BioAssay AID2060357 (Molecular Pharmacology Branch, DTP, NCI, 2025).

Several values for one entry are separate records, joined by “and”; a condition that tells them apart may be missing. Equal values may be shown once.

This assay deals with 292921-168-R-J2-PDC spheroids with HUVEC/MSC, viability. Kind of assay: Anticancer human tumor 292921-168-R-J2-PDC patient-derived pancreatic carcinoma cell line growth inhibition [TAK]. The note with it: for viability, T/C: stronger effect = lower value. From the text: Combinatorial screen of targeted agents with TAK-243 and ipatasertib in multi-cell type tumor spheroids
A high-throughput screen of multi-cell type tumor spheroids was designed to identify active combinations of targeted small molecules and TAK-243 or ipatasertib. Complex spheroids include a stromal component modeled by human endothelial cells (HUVEC) and fibroblasts modeled by human mesenchymal stem cells (MSCs). The concentration ranges selected for each drug and investigational agent were based upon clinically achievable concentrations if the clinical Cmax of the agent was known.
Compounds. The drugs and investigational agents: TAK-243 (785004), ipatasertib (767898), everolimus (733504), selumetinib (741078), bortezomib (756655), trametinib (758246), ixazomib (758254), vemurafenib (761431), dabrafenib (764134), sapanisertib (764658), alpelisib (765974), and copanlisib (816437), were obtained from the National Cancer Institute (NCI) Developmental Therapeutics Program Chemical Repository. The FDA-approved anticancer drug set is available from the NCI Developmental Therapeutics Program. […] The stock solutions were prepared in dimethyl sulfoxide (DMSO, Sigma-Aldrich, St. Louis, MO, cat. D2650) at 800-fold the tested concentration and stored at -70 degrees C prior to their use. All drugs and investigational agents were tested over a range starting from a high concentration at or near the clinical Cmax and decreasing in half-log increments. If the clinical Cmax for an agent had not been determined, the highest concentration tested was 10 microM.
NCI60 Cell Culture. NCI60 cell lines were obtained from the NCI Developmental Therapeutics Program Tumor Repository. For each lot of cells, the Repository performed Applied Biosystems AmpFLSTR Identifiler testing with PCR amplification to confirm consistency with the published Identifier STR profile for each cell line. Cells were kept in continuous culture for no more than 20 passages. The optimal seeding densities for each of the cell lines at each time point assessed were determined prior to performing the concentration response studies. Briefly, the NCI60 human tumor lines were grown as monolayers in RPMI 1640 medium supplemented with 10% FBS and 2 mmol/L L-glutamine.
An additional 2 lines were from the NCI60 cell line panel including melanomas, MALME-3M and SK-MEL-2. Pooled donor human umbilical vein endothelial cells (HUVEC, Lonza, cat. CC-2519) and human mesenchymal stem cells (hMSC, Lonza, cat. PT-2501) were purchased from Lonza (Walkersville, MD).
PDMR cell lines were grown in complete medium (DC medium): Dulbecco's modified Eagle's medium (DMEM)/F12 supplemented with 5% fetal bovine serum (FBS), 2 mM L-glutamine, 100 U/mL penicillin and 100 µg/ml streptomycin, 0.4 µg/ml hydrocortisone, 10 ng/ml epidermal growth factor (EGF) recombinant human protein, 24 µg/mL adenine, and 0.1 mg/mL primocin. During culture from frozen stock vials, PDMR cells were cultured in the same medium containing 10 µM Y-27632 (see Table 3). The PDCs were cultured in complete DMEM/F12 media without 10 microM Y-27632 dihydrochloride for at least two passages prior to the screen. The pooled donor HUVEC and hMSC were cultured in endothelial cell growth medium 2 (PromoCell, Heidelberg, Germany, cat. C-22011) and mesenchymal stem cell growth medium 2 (PromoCell, cat. C-28009), respectively. For all experiments, HUVEC and hMSC were used at passages </=5.
For the pre-screen, cell seeding densities were determined from a titration spanning the range from 5,000 to 313 cells per well. The mct-spheroids including 60% malignant cells, 25% HUVEC and 15% MSC dispensed as a mixture into U-bottom Ultra-Low Attachment 384-well plates (Corning, NY)
High-throughput Drug Combination Screening.
Prior to their inoculation into 384-well plates, malignant cells, HUVEC, and hMSC were removed from T flasks using TrypLE express (Thermo Fisher Scientific, cat. 12605036) and harvested by centrifugation for 5 min at 233 x g. […]

Where [1] appears, read: curve of first compound, second compound 0.3 µM.
Setting [2] is: curve of first compound, second compound 0.949 µM.
The mark [3] stands for this setting: curve of first compound, second compound 3 µM.
Where [4] appears, read: curve of first compound, second compound 9.49 µM.
Where [5] appears, read: curve of first compound, second compound 30 µM.
The mark [6] stands for this setting: second compound 0.3 µM, first compound 0.316 µM.
Setting [7] is: second compound 0.3 µM, first compound 1 µM.
[8] abbreviates: second compound 0.949 µM, first compound 0.316 µM.
Setting [9] is: second compound 0.949 µM, first compound 1 µM.
Where [10] appears, read: second compound 3 µM, first compound 0.316 µM.
[11] abbreviates: second compound 3 µM, first compound 1 µM.
[12] abbreviates: second compound 9.49 µM, first compound 0.316 µM.
Setting [13] is: second compound 9.49 µM, first compound 1 µM.
Where [14] appears, read: second compound 30 µM, first compound 0.316 µM.
Setting [15] is: second compound 30 µM, first compound 1 µM.
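Note: spheroids exposed to drugs for seven days before readout.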

The IC50 is the point on the concentration scale where inhibition reaches its midpoint. For orientation: viability, T/C means the ratio of treated to control. Turning to `CCCS(=O)(=O)Nc1ccc(F)c(C(=O)c2c[nH]c3ncc(-c4ccc(Cl)cc4)cc23)c1F` + CC(C)NCC(C(=O)N1CCN(c2ncnc3c2C(C)CC3O)CC1)c1ccc(Cl)cc1, the IC50 runs as follows: under setting [1], 29.9 µM; under setting [2], more than 100 µM; under setting [3], 11 µM; under setting [4], 5.5 µM; under setting [5], less than 0.316 µM. Besides, the viability, T/C runs as follows: under setting [6], 109%; under setting [7], 106%; (second compound 0.3 µM, first compound 3.16 µM) 102%; (second compound 0.3 µM, first compound 10 µM) 67.5%; (second compound 0.3 µM, first compound 31.6 µM) 44.7%; (second compound 0.3 µM, first compound 100 µM) 52.2%. Further, the viability, T/C was 95.2% under setting [8]; 104% under setting [9]; 89.6% (second compound 0.949 µM, first compound 3.16 µM); 52.5% (second compound 0.949 µM, first compound 10 µM); 41.4% (second compound 0.949 µM, first compound 31.6 µM); 65.2% (second compound 0.949 µM, first compound 100 µM). Besides, the viability, T/C is 94.7% under setting [10]; 96% under setting [11]; 81.3% (second compound 3 µM, first compound 3.16 µM); 44.2% (second compound 3 µM, first compound 10 µM); 41% (second compound 3 µM, first compound 31.6 µM); 16.8% (second compound 3 µM, first compound 100 µM). The viability, T/C runs as follows: under setting [12], 72.5%; under setting [13], 75.4%; (second compound 9.49 µM, first compound 3.16 µM) 62.5%; (second compound 9.49 µM, first compound 10 µM) 35.5%; (second compound 9.49 µM, first compound 31.6 µM) 26.2%; (second compound 9.49 µM, first compound 100 µM) 17.7%. For the same molecule, the viability, T/C was 48.3% under setting [14]; 49.2% under setting [15]; 35.7% (second compound 30 µM, first compound 3.16 µM); 16.6% (second compound 30 µM, first compound 10 µM); 14.9% (second compound 30 µM, first compound 31.6 µM); 9.5% (second compound 30 µM, first compound 100 µM).
On to `CC(C)(C)c1nc(-c2cccc(NS(=O)(=O)c3c(F)cccc3F)c2F)c(-c2ccnc(N)n2)s1`, for which the viability, T/C (compound 0.0316 µM) was 109% and 122%; the viability, T/C (compound 0.1 µM) is 117% and 139%; the viability, T/C (compound 0.316 µM) was 111% and 110%; the viability, T/C (compound 1 µM) was 85% and 84.2%; the viability, T/C (compound 3.16 µM) is 62.5% and 67.1%; the viability, T/C (compound 10 µM) is 34% and 30.9%. For the same molecule, the IC50 (curve of compound) came out at 4.98 µM.
`COc1c(OCCCN2CCOCC2)ccc2c3n(c(=NC(=O)c4cnc(N)nc4)nc12)CCN3` + CC(C)NCC(C(=O)N1CCN(c2ncnc3c2C(C)CC3O)CC1)c1ccc(Cl)cc1: the half-inhibitory concentration (IC50) under setting [1] came to 0.00415 µM; the IC50 under setting [2] is less than 0.00316 µM; the IC50 under setting [3] was less than 0.00316 µM; the IC50 under setting [4] is less than 0.00316 µM; the IC50 under setting [5] is less than 0.00316 µM. Further, the viability, T/C is 55.2% (second compound 0.3 µM, first compound 0.00316 µM); 33.2% (second compound 0.3 µM, first compound 0.01 µM); 19.1% (second compound 0.3 µM, first compound 0.0316 µM); 13.5% (second compound 0.3 µM, first compound 0.1 µM); 10.2% under setting [6]; 9.21% under setting [7]. Further, the viability, T/C runs as follows: (second compound 0.949 µM, first compound 0.00316 µM) 43.5%; (second compound 0.949 µM, first compound 0.01 µM) 27.5%; (second compound 0.949 µM, first compound 0.0316 µM) 20%; (second compound 0.949 µM, first compound 0.1 µM) 13.1%; under setting [8], 9.66%; under setting [9], 8.79%. Besides, the viability, T/C is 30.2% (second compound 3 µM, first compound 0.00316 µM); 21.4% (second compound 3 µM, first compound 0.01 µM); 15.2% (second compound 3 µM, first compound 0.0316 µM); 12.4% (second compound 3 µM, first compound 0.1 µM); 9.94% under setting [10]; 8.66% under setting [11]. The viability, T/C reads like this: (second compound 9.49 µM, first compound 0.00316 µM) 26.4%; (second compound 9.49 µM, first compound 0.01 µM) 15.9%; (second compound 9.49 µM, first compound 0.0316 µM) 12%; (second compound 9.49 µM, first compound 0.1 µM) 9.29%; under setting [12], 8.18%; under setting [13], 7.72%. Besides, the viability, T/C is, setting by setting: (second compound 30 µM, first compound 0.00316 µM) 19.8%; (second compound 30 µM, first compound 0.01 µM) 14.1%; (second compound 30 µM, first compound 0.0316 µM) 10.3%; (second compound 30 µM, first compound 0.1 µM) 7.72%; under setting [14], 6.76%; under setting [15], 7.15%.
Consider `CC(C)CC(NC(=O)C(Cc1ccccc1)NC(=O)c1cnccn1)B(O)O` (stereo unspecified), for which the viability, T/C by setting is: (compound 31.6 pM) 99.4% and 103%; (compound 0.0001 µM) 102%; (compound 0.000316 µM) 104% and 107%; (compound 0.001 µM) 96.7% and 104%; (compound 0.00316 µM) 88.3% and 74.9%; (compound 0.01 µM) 7.89% and 7.64%. Further, the IC50 (curve of compound) is 0.00546 µM and 0.00485 µM.
Take `Cn1cnc2c(F)c(Nc3ccc(Br)cc3Cl)c(C(=O)NOCCO)cc21`: the viability, T/C reads like this: (compound 0.00949 µM) 57.2% and 47.3%; (compound 0.03 µM) 40.2% and 34.1%; (compound 0.0949 µM) 33.8% and 27.4%; (compound 0.3 µM) 31% and 24.2%; (compound 0.949 µM) 25.6% and 21.6%; (compound 3 µM) 15.3% and 11.8%. Also, the IC50 (curve of compound) was 0.0158 µM and < 0.00949 µM.
